# Data: patent US20180325947A1, “USE OF MAPK INHIBITORS TO REDUCE LOSS OF HEMATOPOIETIC STEM CELLS DURING EX VIVO CULTURE AND/OR GENETIC MANIPULATION” (Children's Hospital Medical Center, priority 2015, published 2018)
# Entries after “also recorded” stand apart in the source; their conditions may differ.
# System: human CD33+ myeloid, CD19+ B-lymphoid and CD34+ HSPC progeny
# Experiment: multi-lineage reconstitution (myeloid skewing) in 1T NSG mice 24 weeks post transplantation
# Type: in vivo
# Protocol: FIG. 2. A preclinical model for studying adult human HSC ex vivo manipulation and gene transfer and its effect on LTRP. (Panel A) Freshly isolated or thawed mobilized peripheral blood (MPB) derived CD34+ cells were utilized for the study. Two different protocols were utilized for the study where lentivirus (LV) or γ-Retrovirus (RV) mediated gene transfer was performed at indicated time points. 0 h, 18-24 h, 36-42 h, and 72-96 h indicates the total amount of time where cells were exposed in the ex vivo culture after CD34 isolation before injection into NSG mice. (Panel B) After indicated time in culture and transduction, 1 million CD34+ starting equivalent cells were transplanted per NSG mouse after TBI intravenously (primary transplant=1T). Primary human engraftment and multi-lineage reconstitution was analyzed in mice at indicated time periods after bone marrow harvest at 6 and 12 weeks (wks) from left and right femurs, and after sacrifice at 24 wks, from all bones. A portion of cells were analyzed for FACS and the rest were depleted of mouse CD45+ cells and transplanted one to one, into secondary mice (secondary transplant=2T).
# Human MPB derived CD34^+ cells either fresh or thawed were cultured and transduced with lentivirus (LV) or retrovirus (RV) expressing GFP for the indicated time points. Cells were harvested and phospho-p38MAPK was detected by flow cytometry. […] Data expressed as mean±SEM from 5 independent experiments (n=12-21 mice per group). […]
# Next, the multi-lineage reconstitution was analyzed at 6, 12 and 24 weeks in BM of 1T animals, both of the untransduced (GFP^−) versus transduced (GFP^+) progeny. […]
smiles,measurement,setting,value
"Cc1ccc(-n2nc(C(C)(C)C)cc2NC(=O)Nc2ccc(OCCN3CCOCC3)c3ccccc23)cc1 [BIRB-796, 1-[5-tert-butyl-2-(4-methylphenyl)pyrazol-3-yl]-3-[4-(2-morpholin-4-ylethoxy)naphthalen-1-yl]urea]",myeloid skewing phenotype (overall),"1T mice 24 weeks post transplantation, listed as p38i",significantly revert this phenotype but only partially; also recorded: partially reverts
same,myeloid lineage skewing,72-96 h RV group,some improvement
same,myeloid lineage skewing,"HSPC transduced within the first 24 h with LV, cultures up to 72-96 h",restored to levels similar to untransduced cells or 0 h controls
